The source of these data is patent US20110207807A1, “NEW USE FOR HOMOISOFLAVONE OR A SALT THEREOF” (Catholic University Industry Academy Cooperation Foundation, priority 2008, published 2011).

Experiment [1] relates to leukotriene B4. The experiment is described as follows: Release of leukotriene B4 induced by PMA and A23187 in HMC-1 (enzyme immunoassay). It counts as cell-based, human. An excerpt: (§1) Phorbol 12-myristate 13-acetate and A23187 lead to degranulation of human mast cells (HMC), causing the mast cells to release not only their histamine or serotonin but also newly produced inflammatory factors such as pro-inflammatory cytokines, prostaglandins and leukotrienes. It was investigated whether homoisoflavanone has anti-inflammatory effect in mast cells as in Examples 4 and 5. In order to investigate the effect of homoisoflavanone on the release of leukotriene induced by phorbol 12-myristate 13-acetate and A23187 in HMC-1, 1×10^6 HMC-1 cells were inoculated on a 100-mm culture dish and cultured in Iscove's modified Dulbecco's medium (IMDM, GIBCO) containing 10% FBS for 48 hours. Then, after treating with homoisoflavanone at 2 μg/mL or with mizolastine at 10 μg/mL for comparison for 1 hour, the cells were treated with 50 nM phorbol 12-myristate 13-acetate and 1 μM A23187 to induce release of leukotriene, and then further cultured for 21 hours. Then, the supernatant was collected and the quantity of released leukotriene B4 and C4 was measured using a leukotriene B4, C4 enzyme immunoassay kit (Sapphire Bioscience, Australia).

For experiment [2], the system named is leukotriene C4. Kind of experiment: Release of leukotriene C4 induced by PMA and A23187 in HMC-1 (enzyme immunoassay). It counts as cell-based. As to conditions: Homo sapiens, HMC1; HMC-1, homoisoflavanone 2 μg/mL or mizolastine 10 μg/mL, 50 nM PMA + 1 μM A23187, 21 hours (FIG. 6b).
Source text: as §1

As to `CN(c1nccc(=O)[nH]1)C1CCN(c2nc3ccccc3n2Cc2ccc(F)cc2)CC1` [mizolastine, reference compound], the “leukotriene B4 release when treated alone, versus non-treated group” value in experiment [1] (HMC-1, homoisoflavanone 2 μg/mL or mizolastine 10 μg/mL alone, without PMA/A23187 (FIG. 6a)) is reported as “no appreciable difference”. Also, the inhibition (usually the percentage by which the read-out fell short of the control) at 10 µg/mL in experiment [1] (Homo sapiens, HMC1, HMC-1, homoisoflavanone 2 μg/mL or mizolastine 10 μg/mL, 50 nM PMA + 1 μM A23187, 21 hours (FIG. 6a)) is 20%; in experiment [2], at least 90%.
